From patent US5189055A, “Phenylpyrrolic compounds used as drugs, their preparation and application” (Centre National de la Recherche Scientifique (CNRS), priority 1988, dated 1993)

Legend:
[1] = system: Vero cells; assay: Cytotoxicity / cytostasis test on the Vero line, % inhibition of proliferation (crystal violet); format: cell-based, monkey; details: 72 hours
Description: (§1) The cytotoxicity studies were carried out, on the one hand on the Vero line (normal monkey kidney cell), Table I, and on the other hand on the KB line (human carcinoma of the nasopharynx), Table II, according to the following method:
(§2) The products were introduced at the time of culturing, which is maintained for 72 hours. The products are tested at 100, 80, 40, 20 and 10 μm [sic]. […] The percentage values for inhibition of cell proliferation were measured by a colorimetric method with crystal violet, relative to control cultures containing DMSO (≤1%).

[2] = system: KB cells; assay: Cytotoxicity / cytostasis test on the KB line, % inhibition of proliferation (crystal violet); format: cell-based, human; details: for % inhibition of proliferation: KB cells, 72 hours
Description: as §1, §2

[3] = system: KB cells; assay: as above; format: cell-based, human; details: 5 μm [sic], 72 hours
[4] = system: tubulin; details: natural substances binding to tubulin receptor sites; cited from earlier work

Compound	% inhibition of proliferation ([1]; 10 μm [sic]) [%]	% inhibition of proliferation ([1]; 20 μm [sic]) [%]	% inhibition of proliferation ([1]; 40 μm [sic]) [%]	% inhibition of proliferation ([1]; 80 μm [sic])	% inhibition of proliferation ([1]; 100 μm [sic])	% inhibition of proliferation ([2]; 10 μm [sic]) [%]	% inhibition of proliferation ([2]; 20 μm [sic]) [%]	% inhibition of proliferation ([2]; 40 μm [sic]) [%]	% inhibition of proliferation ([2]; 80 μm [sic]) [%]	% inhibition of proliferation ([2]; 100 μm [sic]) [%]	selectivity with respect to the KB line ([2]; at low concentration, KB versus Vero)	% inhibition of proliferation [3] [%]	inhibition of tubulin polymerization [4]	spiralization of tubulin [4]
CCCCc1c(C)c(-c2ccccc2NC)c(CCC2OCCO2)n1C [(23), 5-Butyl-1,4-dimethyl-2-(1,4-dioxa-2-ethylcarbaldehyde)-3-[2'-(N-methylamino)phenyl]pyrrole]	0	0	25	69%	80%	48	66	81	94	100	some degree of selectivity at low concentration with respect to the KB line	4		
COc1cc([C@@H]2c3cc4c(cc3[C@H](O)[C@H]3COC(=O)[C@H]23)OCO4)cc(OC)c1OC [podophyllotoxin]													inhibit its polymerization	
CC[C@]1(O)C[C@H]2CN(CCc3c([nH]c4ccccc34)[C@@](C(=O)OC)(c3cc4c(cc3OC)N(C=O)[C@H]3[C@@](O)(C(=O)OC)[C@H](OC(C)=O)[C@]5(CC)C=CCN6CC[C@]43[C@@H]65)C2)C1 [vincristine]													inhibit its polymerization	
CCCCc1c(C)c(-c2ccccc2N(C)C(=O)OCc2ccccc2)c(CCC2OCCO2)n1C [(22), 5-Butyl-1,4-dimethyl-2-(1,4-dioxa-2-ethylcarbaldehyde)-3-[2'-(N-benzyloxycarbonyl-N-methylamino)phenyl]pyrrole]	0	0	0	54%	54%	0	0	0	44	59				
CC[C@]1(O)C[C@@H]2CN(CCc3c([nH]c4ccccc34)[C@@](C(=O)OC)(c3cc4c(cc3OC)N(C)[C@H]3[C@@](O)(C(=O)OC)[C@H](OC(C)=O)[C@]5(CC)C=CCN6CC[C@]43[C@@H]65)C2)C1 [vinblastine]													inhibit its polymerization	can cause its spiralization
Cc1c[nH]c2c(=O)[nH]c3ccccc3c12 [(4)]	0	0	45	49-70%	69-84%	0	72	100	60	68				
CCOC(=O)c1[nH]cc(C)c1-c1ccccc1NC(=O)CNC(=O)OCc1ccccc1 [(6), Ethyl 3-[2'-(N-benzyloxycarbonylglycylamido)phenyl]-4-methyl-2-pyrrolecarboxylat]	0	0	4	48%	78%	0	22	31	52	68				
COC(=O)c1[nH]cc(C)c1-c1cccc([N+](=O)[O-])c1 [(2), Methyl 4-methyl-3-(3'-nitrophenyl)-2-pyrrolecarboxylate]	0	3	38	75%	77%	0	0	10	50	72				
Cc1cn(C)c(C(=O)N(C(=O)NC2CCCCC2)C2CCCCC2)c1-c1ccccc1[N+](=O)[O-] [(10), 1,4-Dimethyl-3-(2'-nitrophenyl)pyrrole-2(N,N'-cyclohexylureidocarboxamide)]	0	0	25	100%	100%	0	0	0	27	45				
CCOC(=O)c1[nH]cc(C)c1-c1ccccc1 [(1), Ethyl 4-methyl-3-phenyl-2-pyrrolecarboxylate]	0	0	20	46%	63%	0	0	0	35	43				
